T1: wild-type hGR (Homo sapiens, UniProt P04150)
T1 construct: expressed in transfected cells
T1 sequence (P04150 1-777): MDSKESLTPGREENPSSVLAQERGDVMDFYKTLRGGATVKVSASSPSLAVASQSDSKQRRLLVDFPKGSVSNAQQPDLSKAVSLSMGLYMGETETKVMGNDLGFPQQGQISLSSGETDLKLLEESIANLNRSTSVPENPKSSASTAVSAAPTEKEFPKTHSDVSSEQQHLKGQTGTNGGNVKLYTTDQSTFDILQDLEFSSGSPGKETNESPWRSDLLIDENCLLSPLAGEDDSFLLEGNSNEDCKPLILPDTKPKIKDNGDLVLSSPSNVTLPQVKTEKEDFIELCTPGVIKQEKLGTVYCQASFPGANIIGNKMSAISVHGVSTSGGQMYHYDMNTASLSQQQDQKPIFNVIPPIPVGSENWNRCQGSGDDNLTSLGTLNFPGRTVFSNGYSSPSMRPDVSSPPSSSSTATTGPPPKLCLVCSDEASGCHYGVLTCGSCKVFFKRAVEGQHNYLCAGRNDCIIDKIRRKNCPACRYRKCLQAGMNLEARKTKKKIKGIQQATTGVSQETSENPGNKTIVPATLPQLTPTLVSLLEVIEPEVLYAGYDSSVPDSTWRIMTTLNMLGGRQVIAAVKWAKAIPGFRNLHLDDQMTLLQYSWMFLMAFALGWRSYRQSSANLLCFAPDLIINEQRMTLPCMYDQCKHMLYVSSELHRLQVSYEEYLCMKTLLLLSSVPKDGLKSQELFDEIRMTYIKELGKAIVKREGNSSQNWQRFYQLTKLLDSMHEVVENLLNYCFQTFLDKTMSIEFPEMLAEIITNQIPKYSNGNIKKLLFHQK

T2: hGR(I747/T) (Homo sapiens, UniProt P04150, I747T)
T2 construct: The same shift was observed as with the complete GR (I747/T) mutant; expressed in transfected cells
T2 sequence (P04150 1-777 I747T): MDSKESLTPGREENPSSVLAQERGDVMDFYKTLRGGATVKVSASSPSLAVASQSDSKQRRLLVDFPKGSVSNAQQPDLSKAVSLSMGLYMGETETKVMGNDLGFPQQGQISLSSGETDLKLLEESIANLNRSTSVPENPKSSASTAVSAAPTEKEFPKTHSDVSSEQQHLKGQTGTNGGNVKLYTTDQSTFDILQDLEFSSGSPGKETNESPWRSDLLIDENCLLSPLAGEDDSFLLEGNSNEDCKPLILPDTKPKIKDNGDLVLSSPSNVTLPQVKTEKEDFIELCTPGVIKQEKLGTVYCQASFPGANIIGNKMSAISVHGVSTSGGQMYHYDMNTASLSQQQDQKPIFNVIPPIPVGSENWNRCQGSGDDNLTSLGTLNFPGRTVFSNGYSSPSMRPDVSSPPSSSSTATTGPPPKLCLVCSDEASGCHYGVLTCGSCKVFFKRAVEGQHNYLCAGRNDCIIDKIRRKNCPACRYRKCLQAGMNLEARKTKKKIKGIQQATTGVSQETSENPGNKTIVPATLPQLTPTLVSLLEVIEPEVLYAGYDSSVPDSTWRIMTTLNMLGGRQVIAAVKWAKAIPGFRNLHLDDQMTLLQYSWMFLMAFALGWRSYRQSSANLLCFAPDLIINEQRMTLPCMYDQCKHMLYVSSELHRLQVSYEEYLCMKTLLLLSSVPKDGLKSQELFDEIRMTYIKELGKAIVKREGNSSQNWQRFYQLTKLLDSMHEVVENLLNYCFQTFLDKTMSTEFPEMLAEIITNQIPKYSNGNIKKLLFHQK

T3: GR(I747/T) glucocorticoid receptor mutant (Homo sapiens, UniProt P04150 SEQ:1-777)
T3 chain: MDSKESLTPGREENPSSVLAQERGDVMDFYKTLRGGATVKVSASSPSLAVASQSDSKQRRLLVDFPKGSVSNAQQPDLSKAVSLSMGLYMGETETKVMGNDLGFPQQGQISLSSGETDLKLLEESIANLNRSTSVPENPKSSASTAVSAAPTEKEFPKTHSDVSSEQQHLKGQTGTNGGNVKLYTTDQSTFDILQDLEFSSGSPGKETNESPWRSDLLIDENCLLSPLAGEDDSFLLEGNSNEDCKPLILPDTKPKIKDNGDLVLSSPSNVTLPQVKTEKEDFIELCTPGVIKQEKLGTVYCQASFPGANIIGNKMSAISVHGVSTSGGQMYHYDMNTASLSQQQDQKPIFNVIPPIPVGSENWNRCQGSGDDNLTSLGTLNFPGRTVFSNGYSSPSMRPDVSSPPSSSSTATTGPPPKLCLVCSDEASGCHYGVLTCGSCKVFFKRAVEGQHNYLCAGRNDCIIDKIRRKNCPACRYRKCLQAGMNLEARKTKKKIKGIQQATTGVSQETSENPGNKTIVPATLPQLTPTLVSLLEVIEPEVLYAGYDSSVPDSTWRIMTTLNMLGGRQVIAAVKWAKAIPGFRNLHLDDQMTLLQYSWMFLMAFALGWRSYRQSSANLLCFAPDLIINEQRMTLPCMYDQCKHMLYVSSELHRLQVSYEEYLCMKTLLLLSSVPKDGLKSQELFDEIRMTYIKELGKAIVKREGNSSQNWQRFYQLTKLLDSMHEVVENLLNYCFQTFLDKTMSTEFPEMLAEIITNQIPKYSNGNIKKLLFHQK


Tests used:
wild-type hGR = biological target: T1, wild-type hGR; experiment: Transcriptional activation of pTAT-tk-Luc luciferase reporter in transiently transfected CV-1 cells; format: cell-based; design: Luciferase activity % Wild type: concentration or dose not given beside the values; conditions: for Luciferase activity % Wild type: 24 h ligand, mean of three independent assays; for EC50: ligand concentration giving 50% of maximum transcriptional response
Protocol: (§1) The receptors were transiently expressed in GR-free CV-1 cells, conjointly with a luciferase reporter gene under the control of the tyrosine aminotransferase promoter (pTAT-tk-Luc).
(§2) After transfection, the cells were incubated for 24 hours with increasing concentrations of Dex, and they were then subjected to an assay of the β-galactosidase and luciferase activities, as described in “Materials and Methods”. The luciferase activity was normalized with the β-galactosidase activity, and the value obtained in the absence of ligand was subtracted for each point. The results were expressed as a percentage of the maximum luciferase activity obtained for each receptor. Each point is the mean±standard deviation of the mean of four separate determinations carried out in duplicate. […] The [^3H] steroid attached was measured after treatment with dextran-coated charcoal. The results presented are those for a single assay carried out in duplicate and representative of three separate assays.
(§3) Co-transfections were carried out and dose-response curves were constructed as described in FIG. 2. […] The assays of luciferase and β-galactosidase activity were carried out as described in “Materials and Methods”. The mean values of three independent assays are given in this table. nm=not measurable.
(§4) The CV-1 and Cos-7 cells were cultured in Dulbeco's modified Eagle's medium (DMEM) containing 10% (v/v) of fetal calf serum (FCS) (Gibco, Grand Island, N.Y.), in a humidified atmosphere containing 5% CO2. The HeLa cells were cultured under the same conditions. Transient transfections were carried out in 6-well multiplates according to the calcium phosphate procedure already described (42). A reference recombinant plasmid, pCMV-βgal, expressing bacterial β-galactosidase, was transfected conjointly with the receptor expression vector and the corresponding reporter gene so as to correct possible variations in he transfection efficiency. The precipitate was removed by washing after 24 hours, and the cells were kept in DMEX without FCS but containing hormone. After another 24 hours, the cells were rinsed and lysed for 15 minutes with 0.3 ml of lysis buffer [25 mM Tris.phosphate, pH 7.8, 8 mM […], 1% Triton X100, 10% glycerol (48)]. The corresponding luciferase activity as determined on an aliquot fraction (0.1 ml), by evaluation of the luminescence peak (for an integration time of 15 seconds), after injection of 0.1 ml of 1 mM luciferin in an LKB luminometer. The β-galactosidase was determined by the method modified by Bocquel et al. (49), for controlling the efficiency of each transfection.
(§5) The reporter gene pTAT-tk-Luc was provided by D. Gagne and was constructed as follows: an intermediate plasmid pTAT was first generated by insertion of the 966 bp EcoRI-BamHI segment obtained from pKT531 [offered freely by T. Grande (50)] into the corresponding sites of the vector pUC19 (Pharmacia). The fragment containing the sequence coding for the firefly luciferase and the thymidine kinase (tk) minimal promoter obtained from the Herpes simplex virus was isolated in the form of a BamHI fragment from pvit-tk-Luc (51) and inserted, downstream of the TAT promoter, into the corresponding site of pTAT. The reporter plasmid pGRE-tk-Luc was constructed by ligation of the fragment of HindIII-BglII digestion of pGRE-tk-CAT (52), which contains a synthetic GRE (AGAACAcagTGTTCT) upstream of the tk minimal promoter, into the HindIII-BglII sites of pLuc (53). The reporter gene p(17M)5-βGlob-Luc has been previously described (54). The reporter plasmid p(17M)5-tata-Luc was constructed from the plasmid p(17M)5-tata-CAT (55) by digestion with XhoI-BamHI and isolation of the fragment containing (17M5)-tata. This fragment was then inserted into the vector pGL2 (Promega) digested with the same restriction enzymes.

hGR(I747/T) = biological target: T2, hGR(I747/T); experiment: as above; format: cell-based; conditions: for Luciferase activity % hGR (I747/T) / EC50 / transactivation by the I747/T mutant receptor compared with wild-type receptor: CV-1 cells, pTAT-tk-Luc; for Luciferase activity % hGR (I747/T): 24 h ligand, mean of three independent assays; for EC50: ligand concentration giving 50% of maximum transcriptional response; for % EC50: EC50 hGR(I747/T) relative to EC50 wild type
Protocol: as §1, §2, §3, §4, §5

[1] = test system: Gal4(1-147)-GR(500-777) (Saccharomyces cerevisiae / Homo sapiens); experiment: cell_activity; conditions: EC50 is for dexamethasone; p(17M)5-βGlob-Luc in HeLa cells; 2e-9 M with tata-Luc
[2] = test system: Gal4(1-147)-GR(I747/T)(500-777) I747T (Saccharomyces cerevisiae / Homo sapiens); experiment: cell_activity; conditions: EC50 is for dexamethasone; p(17M)5-βGlob-Luc in HeLa cells; 2e-7 M with tata-Luc
[3] = biological target: GR(I747/T) glucocorticoid receptor mutant (Homo sapiens) (UniProt P04150); experiment: cell_activity; conditions: EC50 is for dexamethasone; luciferase reporter in CV-1 cells; cortisol 15% and corticosterone/aldosterone 0% activity
[4] = biological target: wild-type glucocorticoid receptor (hGR) T747I (reversion to wild type) (Homo sapiens) (UniProt P04150); experiment: cell_activity; conditions: EC50 is for dexamethasone; luciferase reporter in CV-1 cells
[5] = biological target: T3, GR(I747/T) glucocorticoid receptor …; experiment: cell_activity; EC50 is for dexamethasone; luciferase reporter in CV-1 cells
Protocol: The $EC50$ values were determined graphically.
The HeLa cells were cultured under the same conditions.

Luciferase activity % Wild type (wild-type hGR) [%] | EC50 (wild-type hGR) [nM] | Luciferase activity % hGR (I747/T) (hGR(I747/T)) [%] | EC50 (hGR(I747/T)) [nM] | transactivation by the I747/T mutant receptor compared with wild-type receptor (hGR(I747/T)) | % EC50 (hGR(I747/T)) [%] | Molecule | EC50 [1] [nM] | EC50 [2] [nM] | EC50 [3] [nM] | EC50 [4] [nM] | EC50 [5] [nM]
98 | 0.5 | 102 | 20 | – | – | CC1(C)O[C@@H]2C[C@H]3[C@@H]4CCC5=CC(=O)C=C[C@]5(C)[C@@]4(F)[C@@H](O)C[C@]3(C)[C@]2(C(=O)CO)O1 [TA, triamcinolone acetonide] | – | – | – | – | –
75 | 0.15 | 100 | 3 | a higher activity | 20 | CC1(C)O[C@@H]2C[C@H]3[C@@H]4C[C@H](F)C5=CC(=O)C=C[C@]5(C)[C@@]4(F)[C@@H](O)C[C@]3(C)[C@]2(C(=O)CO)O1 [Fluocinolone, fluocinolone acetonide] | – | – | – | – | –
100 | 0.1 | 180 | 2 | a higher activity | 20 | bimedrazol | – | – | – | – | –
– | – | – | – | – | – | (17M)5 Gal4 response element | 1.7 | 150 | – | – | –
– | – | – | – | – | – | TAT promoter (pTAT-tk-Luc), two GREs | – | – | 40 | 0.4 | –
– | – | – | – | – | – | synthetic palindromic GRE (pGRE-tk-Luc) (dsDNA) DNA 1: AGAACACAGTGTTCT DNA 2: AGAACACTGTGTTCT | – | – | – | – | 20

Molecule | Luciferase activity % Wild type (wild-type hGR) [%] | EC50 (wild-type hGR) [nM] | Luciferase activity % hGR (I747/T) (hGR(I747/T)) [%] | EC50 (hGR(I747/T)) [nM] | transactivation by the I747/T mutant receptor compared with wild-type receptor (hGR(I747/T)) | % EC50 (hGR(I747/T)) [%] | EC50 [1] [nM] | EC50 [2] [nM] | EC50 [3] [nM] | EC50 [4] [nM] | EC50 [5] [nM]
CC#C[C@]1(O)CC[C@H]2[C@@H]3C=C(C)C4=CC(=O)C=C[C@]4(C)[C@H]3[C@@H](O)C[C@@]21C [RU28362] | 90 | 0.3 | 88 | 7 | the same transactivation as with the wild-type receptor | 23 | – | – | – | – | –
